In ChEMBL document CHEMBL3526109 (Drug Metab Dispos, 2011):

Columns and labels:
Settings in all cases: in vivo
Plasma [1] = test: Drug level in cynomolgus monkey plasma assessed as compound formation treated with [14C]brivanib alaninate at 10 mg/kg, po administered as single dose via gavage measured after 6 hrs by HPLC analysis; format: ADME, organism-based, Macaca fascicularis
Plasma [2] = test: Drug level in Sprague-Dawley rat plasma assessed as compound formation treated with [14C]brivanib alaninate at 100 mg/kg, po administered as single dose via gavage measured after 1 hr by HPLC analysis; format: ADME, organism-based
[3] = Drug excretion in human urine treated with [14C]brivanib alaninate at 800 mg, po administered as single dose […] by HPLC analysis; format: ADME, organism-based
Plasma [4] = test: Drug level in cynomolgus monkey plasma assessed as compound formation treated with [14C]brivanib alaninate at 10 mg/kg, po administered as single dose via gavage measured after 4 hrs by HPLC analysis; format: ADME, organism-based, Macaca fascicularis
Plasma [5] = test: Drug level in cynomolgus monkey plasma assessed as compound formation treated with [14C]brivanib alaninate at 10 mg/kg, po administered as single dose via gavage measured after 1 hr by HPLC analysis; format: ADME, organism-based, Macaca fascicularis
[6] = Drug excretion in human feces treated with [14C]brivanib alaninate at 800 mg, po administered as single dose […] by HPLC analysis; format: ADME, organism-based
[7] = Drug level in Sprague-Dawley rat urine treated with [14C]brivanib alaninate at 100 mg/kg, po administered as single dose via gavage by mass spectrometry; format: ADME, organism-based
Plasma [8] = test: Drug level in cynomolgus monkey plasma assessed as compound formation treated with [14C]brivanib alaninate at 10 mg/kg, po administered as single dose via gavage measured after 2 hrs by HPLC analysis; format: ADME, organism-based, Macaca fascicularis
[9] = Drug excretion in cynomolgus monkey feces treated with [14C]brivanib alaninate at 10 mg/kg, po administered as single dose via gavage by HPLC analysis; format: ADME, organism-based, Macaca fascicularis
Cynomolgus monkey [10] = test: Drug uptake in cynomolgus monkey plasma treated with [14C]brivanib alaninate assessed as AUC (0 to 12 hrs) of total radio activity at 10 mg/kg, po administered as single oral dose by HPLC analysis; format: ADME, organism-based, Macaca fascicularis
[11] = Drug excretion in Sprague-Dawley rat feces treated with [14C]brivanib alaninate at 100 mg/kg, po administered as single dose via gavage by HPLC analysis; format: ADME, organism-based
Plasma [12] = test: Drug level in human plasma assessed as compound formation treated with [14C]brivanib alaninate at 800 mg, po administered as single dose via gavage measured after 12 hrs by HPLC analysis; format: ADME, organism-based
Rattus norvegicus [13] = test: Drug uptake in Sprague-Dawley rat plasma treated with [14C]brivanib alaninate assessed as AUC (0 to 6 hrs) of total radio activity at 100 mg/kg, po administered as single oral dose by HPLC analysis; format: ADME, organism-based
Plasma [14] = test: Drug level in human plasma assessed as compound formation treated with [14C]brivanib alaninate at 800 mg, po administered as single dose via gavage measured after 4 hrs by HPLC analysis; format: ADME, organism-based
[15] = Drug excretion in bile duct-cannulated cynomolgus monkey bile treated with [14C]brivanib alaninate at 10 mg/kg, po administered as single dose via gavage by HPLC analysis; format: ADME, organism-based, Macaca fascicularis
Homo sapiens [16] = test: AUC (0 to 12 hrs) human plasma treated with [14C]brivanib alaninate at 800 mg, po administered as single oral dose by HPLC analysis; format: ADME, organism-based
Rattus norvegicus [17] = test: AUC (0 to 6 hrs) Sprague-Dawley rat plasma treated with [14C]brivanib alaninate at 100 mg/kg, po administered as single oral dose by HPLC analysis; format: ADME, organism-based
Plasma [18] = test: Drug level in Sprague-Dawley rat plasma assessed as compound formation treated with [14C]brivanib alaninate at 100 mg/kg, po administered as single dose via gavage measured after 6 hrs by HPLC analysis; format: ADME, organism-based
Plasma [19] = test: Drug level in human plasma assessed as compound formation treated with [14C]brivanib alaninate at 800 mg, po administered as single dose via gavage measured after 8 hrs by HPLC analysis; format: ADME, organism-based
[20] = Drug excretion in cynomolgus monkey urine treated with [14C]brivanib alaninate at 10 mg/kg, po administered as single dose via gavage by HPLC analysis; format: ADME, organism-based, Macaca fascicularis
Plasma [21] = test: Drug level in human plasma assessed as compound formation treated with [14C]brivanib alaninate at 800 mg, po administered as single dose via gavage measured after 1 hr by HPLC analysis; format: ADME, organism-based
Plasma [22] = test: Drug level in Sprague-Dawley rat plasma assessed as compound formation treated with [14C]brivanib alaninate at 100 mg/kg, po administered as single dose via gavage measured after 2 hrs by HPLC analysis; format: ADME, organism-based
Cynomolgus monkey [23] = test: AUC (0 to 12 hrs) cynomolgus monkey plasma treated with [14C]brivanib alaninate at 10 mg/kg, po administered as single oral dose by HPLC analysis; format: ADME, organism-based, Macaca fascicularis
[24] = Drug excretion in bile duct-cannulated rat bile treated with [14C]brivanib alaninate at 100 mg/kg, po administered as single dose via gavage by HPLC analysis; format: ADME, organism-based
Plasma [25] = test: Drug level in human plasma assessed as compound formation treated with [14C]brivanib alaninate at 800 mg, po administered as single dose via gavage measured after 2 hrs by HPLC analysis; format: ADME, organism-based
Homo sapiens [26] = test: Drug uptake in human plasma treated with [14C]brivanib alaninate assessed as AUC (0 to 12 hrs) of total radio activity at 800 mg, po administered as single oral dose by HPLC analysis; format: ADME, organism-based
Plasma [27] = test: Drug level in cynomolgus monkey plasma assessed as compound formation treated with [14C]brivanib alaninate at 10 mg/kg, po administered as single dose via gavage measured after 12 hrs by HPLC analysis; format: ADME, organism-based, Macaca fascicularis
Plasma [28] = test: Drug level in Sprague-Dawley rat plasma assessed as compound formation treated with [14C]brivanib alaninate at 100 mg/kg, po administered as single dose via gavage measured after 1 hr by mass spectrometry; format: ADME, organism-based
[29] = Drug excretion in Sprague-Dawley rat urine treated with [14C]brivanib alaninate at 100 mg/kg, po administered as single dose via gavage by HPLC analysis; format: ADME, organism-based
Plasma [30] = test: Drug level in Sprague-Dawley rat plasma assessed as compound formation treated with [14C]brivanib alaninate at 100 mg/kg, po administered as single dose via gavage measured after 2 hrs by mass spectrometry; format: ADME, organism-based
[31] = Drug level in bile duct-cannulated rat bile treated with [14C]brivanib alaninate at 100 mg/kg, po administered as single dose via gavage by mass spectrometry; format: ADME, organism-based
Plasma [32] = test: Drug level in Sprague-Dawley rat plasma assessed as compound formation treated with [14C]brivanib alaninate at 100 mg/kg, po administered as single dose via gavage measured after 6 hrs by mass spectrometry; format: ADME, organism-based

Structure (SMILES)	Compound recovery (Plasma [1]) [%]	Compound recovery [3] [%]	Compound recovery (Plasma [4]) [%]	Compound recovery (Plasma [5]) [%]	Compound recovery [6]	Compound recovery (Plasma [8]) [%]	Compound recovery [9]	Compound recovery [11]	Compound recovery (Plasma [12])	Compound recovery (Plasma [14])	Compound recovery [15] [%]	Compound recovery (Plasma [19])	Compound recovery [20] [%]	Compound recovery (Plasma [21]) [%]	Compound recovery (Plasma [25]) [%]	Compound recovery (Plasma [27])	also measured
Cc1c(OC[C@@H](C)OS(=O)(=O)O)cn2ncnc(Oc3ccc4[nH]c(CO)cc4c3F)c12	7.9	3.6	3.5	3	8.3%	1.5	2.4%	4.8%	4.1%	3.6%	10.3	1.7%	4.9	0.7	2.9	3%	Compound recovery (Plasma [2]): 5.8%; Compound recovery [7]: metabolite_detected; AUC metabolite/AUC radiolabel (Cynomolgus monkey [10]): 4.7%; AUC metabolite/AUC radiolabel (Rattus norvegicus [13]): 3.9%; AUC (Homo sapiens [16]): 1202.5 ugequiv/l.hr; AUC (Rattus norvegicus [17]): 5443.1 ugequiv/l.hr; Compound recovery (Plasma [18]): 4.3%; Compound recovery (Plasma [22]): 3.1%; AUC (Cynomolgus monkey [23]): 3272.2 ugequiv/l.hr; Compound recovery [24]: 1%; AUC metabolite/AUC radiolabel (Homo sapiens [26]): 1.8%
Cc1cc2c(F)c(Oc3ncnn4cc(OC[C@@H](C)O[C@@H]5O[C@H](C(=O)O)[C@@H](O)[C@H](O)[C@H]5O)c(C)c34)ccc2[nH]1	0.9	1.1	1.9	7.2	metabolite_not_detected	2.2	metabolite_not_detected	metabolite_not_detected	metabolite_not_detected	metabolite_not_detected	0.6	metabolite_not_detected	0.3	2.6	2.3	metabolite_not_detected	Compound recovery (Plasma [28]): metabolite_detected; Compound recovery [29]: metabolite_not_detected; Compound recovery (Plasma [30]): metabolite_detected; Compound recovery [31]: metabolite_detected; Compound recovery (Plasma [32]): metabolite_detected
